Data published in patent US8975234B2, “Anti-bacterial infection, inflammation, and leukemia composition and use thereof” (priority 2011, dated 2015).
Values after ≈ are worked out from the molar mass of the structure shown. Like-named read-outs stand apart in the source and are kept apart here.

Legend:
[1] = system: MSSA (Methicillin-susceptible Staphylococcus aureus); assay: Minimum inhibitory concentration (broth microdilution) and FIC index; type: cell-based
Description: (§1) A serial of twofold dilution of the tested antibiotics (oxacillin, erythromycin, ampicillin, kanamycin, levofoxacin, vancomycin and doxycycline) was perform by Broth microdilution method to a final concentration of 2-512 μg/mL. The bacterial overnight culture was collected and re-suspended in the Muller-Hilton (M-H) broth. An aliquot of cell suspension (OD600=0.1) was prepared. The bacterial suspensions were plated in 96-well plate and incubated with test antibiotics at 37° C. in a 5% CO2 incubator (Table 1 to Table 4).
(§2) The […], […] and antagonism between two drugs was evaluated by the following formula:
(§3) [formula] The criteria of fractional inhibitory concentration index: […]

[2] = system: MRSA 18271; assay: as above; type: cell-based, Staphylococcus aureus
Description: as §1, §2, §3

[3] = system: MRSA 18631; assay: as above; type: cell-based, Staphylococcus aureus
Description: as §1, §2, §3

[4] = system: MRSA 19615; assay: as above; type: cell-based, Staphylococcus aureus
Description: as §1, §2, §3

[5] = system: standard MRSA strain (ATCC 33591); assay: Minimum inhibitory concentration (broth microdilution); type: cell-based, Staphylococcus aureus; conditions: Staphylococcus aureus, Table 1
Description: as §1

[6] = system: 14 clinical isolated MRSA strains; assay: MIC and FIC index of oxacillin with Tellimagrandin II, clinical isolates; type: cell-based; conditions: Staphylococcus aureus
Description: 14 clinical isolated MRSA strains were tested with oxacillin and Tellimagrandin II (40 μg/mL) and the FIC index was calculated.
as §1, §2, §3

[7] = system: Staphylococcus aureus (MSSA and MRSA strains); assay: Synergy of antibiotics with Tellimagrandin II (text summary of Tables 1 to 4); type: cell-based; conditions: Table 2
Description: as §1, §2, §3

[8] = system: MRSA 19615; assay: Time-killing curve; type: cell-based, Staphylococcus aureus; conditions: 5 μg/mL alone
Description: MRSA 19615 bacteria were cultured overnight, collected and re-suspended in 25 mL MHB containing TGII and antibiotics of the indicated final concentration. To dilute the samples, samples were taken from the suspension at indicated time interval and mixed with filtered PBS, followed by spreading the diluted sample on MHA plated for two plates/each time point. Colony counts between 150 and 500 colonies in first time point was used to determine the dilution fold. Time-killing curves were calculated from colony counting and data analyzing was performed after overnight culture. Bacterial time-kill curves were constructed by plotting mean colony counts (log10 cfu/mL) versus time (FIGS. 4 and 5).

[9] = system: K-562 cells; assay: ROS test (DCF-DA); type: cell-based, human; conditions: pre-treatment 10 μM before Tellimagrandin II 50 μM for 2 hours
Description: A radical specific fluorescent dye, 2′,7′-dichlorofluorescein (DCF-DA) was used to detect H2O2/NO-based radicals or O2— in cells respectively.
A total of 3 mL cell solution at the concentration of 1×10^6 K-562 cells per mL was cultured with 6 cm cell culture plates in an incubator supplied with 5% CO2 at 37° C. for 30 minutes so that cells could adapt to the environment. Tellimagrandin II solutions of different concentrations were added by order so that the final concentrations are 0, 30, 40 and 50 μM respectively. The solution was placed in incubator with 5% CO2 at 37° C. for 2 hours before being centrifuged at 3,500 rpm at 4° C. for 5 minutes and then being rinsed by PBS once. 2′,7′-dichlorofluorescein (DCF-DA) was added before the solution was put into dark incubator for 45 minutes and then rinsed by PBS once again. Finally, 1 mL PBS was used to resuspend the cells before BD FACScan was used to detect the fluorescent signal.

[10] = Table 3, MSSA, Tellimagrandin II (40 μg/ml) +
[11] = Table 3, 18271, Tellimagrandin II (40 μg/ml) +
[12] = Table 3, 18631, Tellimagrandin II (40 μg/ml) +
[13] = Table 3, 19615, Tellimagrandin II (40 μg/ml) +

## Cc1onc(-c2ccccc2)c1C(=O)N[C@@H]1C(=O)N2[C@@H]1SC(C)(C)[C@@H]2C(=O)O [Oxacillin]
[1]; Staphylococcus aureus, MSSA, Table 1, MSSA, read-out: Minimum inhibitory concentration
  MIC: 4 µg/mL
[1]; Staphylococcus aureus, MSSA, Table 2, Non-drug resistant Staphylococcus aureus, with TG II 30 μg/mL, read-out: MIC
  MIC: < 2 µg/mL
[1]; Staphylococcus aureus, MSSA, Table 2, Non-drug resistant Staphylococcus aureus, with TG II 40 μg/mL, read-out: MIC
  MIC: < 2 µg/mL
[1]; Staphylococcus aureus, MSSA, Table 2, Non-drug resistant Staphylococcus aureus, without TG II, read-out: MIC
  MIC: 4 µg/mL
[1]; Staphylococcus aureus, MSSA, Table 3, MSSA, Tellimagrandin II (40 μg/ml) −, read-out: MIC
  MIC: 4 µg/mL
[1]; Table 2, Non-drug resistant Staphylococcus aureus, with TG II 30 μg/mL
  FIC: 0.5
[1]; Table 2, Non-drug resistant Staphylococcus aureus, with TG II 40 μg/mL
  FIC: 0.5
[1]; [10]
  FIC: 0.5
  MIC: 2 µg/mL
[2]; Staphylococcus aureus, MRSA, Table 1, MRSA 18271, read-out: Minimum inhibitory concentration
  MIC: > 512 µg/mL
[2]; Staphylococcus aureus, MRSA, Table 2, 18271, with TG II 30 μg/mL, read-out: MIC
  MIC: 32 µg/mL
[2]; Staphylococcus aureus, MRSA, Table 2, 18271, with TG II 40 μg/mL, read-out: MIC
  MIC: 16 µg/mL
[2]; Staphylococcus aureus, MRSA, Table 2, 18271, without TG II, read-out: MIC
  MIC: 512 µg/mL
[2]; Staphylococcus aureus, MRSA, Table 3, 18271, Tellimagrandin II (40 μg/ml) −, read-out: MIC
  MIC: 512 µg/mL
[2]; Table 2, 18271, with TG II 30 μg/mL
  FIC: 0.0063
[2]; Table 2, 18271, with TG II 40 μg/mL
  FIC: 0.0031
[2]; [11]
  FIC: 0.031
  MIC: 16 µg/mL
[3]; Staphylococcus aureus, MRSA, Table 1, MRSA 18631, read-out: Minimum inhibitory concentration
  MIC: > 512 µg/mL
[3]; Staphylococcus aureus, MRSA, Table 2, 18631, with TG II 30 μg/mL, read-out: MIC
  MIC: 64 µg/mL
[3]; Staphylococcus aureus, MRSA, Table 2, 18631, with TG II 40 μg/mL, read-out: MIC
  MIC: 8 µg/mL
[3]; Staphylococcus aureus, MRSA, Table 2, 18631, without TG II, read-out: MIC
  MIC: 512 µg/mL
[3]; Staphylococcus aureus, MRSA, Table 3, 18631, Tellimagrandin II (40 μg/ml) −, read-out: MIC
  MIC: 512 µg/mL
[3]; Table 2, 18631, with TG II 30 μg/mL
  FIC: 0.125
[3]; Table 2, 18631, with TG II 40 μg/mL
  FIC: 0.016
[3]; [12]
  FIC: 0.016
  MIC: 8 µg/mL
[4]; Staphylococcus aureus, MRSA, Table 1, MRSA 19615, read-out: Minimum inhibitory concentration
  MIC: 512 µg/mL
[4]; Staphylococcus aureus, MRSA, Table 2, 19615, with TG II 30 μg/mL, read-out: MIC
  MIC: < 2 µg/mL
[4]; Staphylococcus aureus, MRSA, Table 2, 19615, with TG II 40 μg/mL, read-out: MIC
  MIC: 4 µg/mL
[4]; Staphylococcus aureus, MRSA, Table 2, 19615, without TG II, read-out: MIC
  MIC: 512 µg/mL
[4]; Staphylococcus aureus, MRSA, Table 3, 19615, Tellimagrandin II (40 μg/ml) −, read-out: MIC
  MIC: 512 µg/mL
[4]; Table 2, 19615, with TG II 30 μg/mL
  FIC: 0.004
[4]; Table 2, 19615, with TG II 40 μg/mL
  FIC: 0.008
[4]; [13]
  FIC: 0.008
  MIC: 4 µg/mL
[5]
  MIC: 512 µg/mL (≈ 1280 µM)
[6]; MRSA 1, oxacillin alone
  MIC: 512 µg/mL
[6]; MRSA 2, oxacillin alone
  MIC: 512 µg/mL
[6]; MRSA 3, oxacillin alone
  MIC: 512 µg/mL
[6]; MRSA 4, oxacillin alone
  MIC: 512 µg/mL
[6]; MRSA 5, oxacillin alone
  MIC: 512 µg/mL
[6]; MRSA 6, oxacillin alone
  MIC: 256 µg/mL
[6]; MRSA 7, oxacillin alone
  MIC: 256 µg/mL
[6]; MRSA 8, oxacillin alone
  MIC: 128 µg/mL
[6]; MRSA 9, oxacillin alone
  MIC: 128 µg/mL
[6]; MRSA 10, oxacillin alone
  MIC: 64 µg/mL
[6]; MRSA 11, oxacillin alone
  MIC: 64 µg/mL
[6]; MRSA 12, oxacillin alone
  MIC: 64 µg/mL
[6]; MRSA 13, oxacillin alone
  MIC: 64 µg/mL
[6]; MRSA 14, oxacillin alone
  MIC: 32 µg/mL
[7]
  effect of antibiotic with Tellimagrandin II: synergistic effect
[8]
  bacterial growth, time-killing curve: failed to inhibit bacterial growth

## CC(=O)N[C@@H](CS)C(=O)O [N-acetyl-L-cysteine]
[9]
  ROS production: inhibition of ROS production
